Results published in PubChem BioAssay AID2060602 (Molecular Pharmacology Branch, DTP, NCI, 2025).
“And” between values parts separate entries of the source, which are not always exact repeats. Equal entries are not always repeated. Each block holds one molecule with its values, some of them ahead of it.

Tested on: 648629-189-R-J1-PDC complex spheroids viability
Test: Anticancer human tumor 648629-189-R-J1-PDC patient-derived bladder carcinoma cell line growth inhibition [CLK]
Details: for viability, T/C: stronger effect = lower value
Method in brief: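 Patient-derived tumor cells grown as complex spheroids with HUVEC endothelial cells and mesenchymal stem cells, treated with drug combinations. Concentrations descend in half-log steps from near clinical Cmax, or from 10 microM if Cmax unknown.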

[1] = curve of first compound, second compound 0.0316 µM
[2] = curve of first compound, second compound 0.1 µM
[3] = curve of first compound, second compound 0.316 µM
[4] = curve of first compound, second compound 1 µM
[5] = curve of first compound, second compound 3.16 µM
[6] = curve of first compound, second compound 10 µM
[7] = second compound 0.0316 µM, first compound 0.0316 µM
[8] = second compound 0.0316 µM, first compound 0.1 µM
[9] = second compound 0.0316 µM, first compound 0.316 µM
[10] = second compound 0.0316 µM, first compound 1 µM
[11] = second compound 0.0316 µM, first compound 3.16 µM
[12] = second compound 0.0316 µM, first compound 10 µM
[13] = second compound 0.1 µM, first compound 0.0316 µM
[14] = second compound 0.1 µM, first compound 0.1 µM
[15] = second compound 0.1 µM, first compound 0.316 µM
[16] = second compound 0.1 µM, first compound 1 µM
[17] = second compound 0.1 µM, first compound 3.16 µM
[18] = second compound 0.1 µM, first compound 10 µM
[19] = second compound 0.316 µM, first compound 0.0316 µM
[20] = second compound 0.316 µM, first compound 0.1 µM
[21] = second compound 0.316 µM, first compound 0.316 µM
[22] = second compound 0.316 µM, first compound 1 µM
[23] = second compound 0.316 µM, first compound 3.16 µM
[24] = second compound 0.316 µM, first compound 10 µM
[25] = second compound 1 µM, first compound 0.0316 µM
[26] = second compound 1 µM, first compound 0.1 µM
[27] = second compound 1 µM, first compound 0.316 µM
[28] = second compound 1 µM, first compound 1 µM
[29] = second compound 1 µM, first compound 3.16 µM
[30] = second compound 1 µM, first compound 10 µM
[31] = second compound 3.16 µM, first compound 0.0316 µM
[32] = second compound 3.16 µM, first compound 0.1 µM
[33] = second compound 3.16 µM, first compound 0.316 µM
[34] = second compound 3.16 µM, first compound 1 µM
[35] = second compound 3.16 µM, first compound 3.16 µM
[36] = second compound 3.16 µM, first compound 10 µM
[37] = second compound 10 µM, first compound 0.0316 µM
[38] = second compound 10 µM, first compound 0.1 µM
[39] = second compound 10 µM, first compound 0.316 µM
[40] = second compound 10 µM, first compound 1 µM
[41] = second compound 10 µM, first compound 3.16 µM
[42] = second compound 10 µM, first compound 10 µM
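Throughout, for viability, T/C: drug exposure lasted seven days before viability readout; 100% = DMSO vehicle control wells.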

Compound: CCCS(=O)(=O)Nc1ccc(F)c(C(=O)c2c[nH]c3ncc(-c4ccc(Cl)cc4)cc23)c1F + CN1CCN(c2cc(C(=O)Nc3cc4cc(-c5cnn(C)c5)ccc4cn3)ccn2)CC1
IC50 [1]: 7.05 µM
IC50 [2]: 7.25 µM
IC50 [3]: < 0.0316 µM
IC50 [4]: < 0.0316 µM
IC50 [5]: < 0.0316 µM
IC50 [6]: < 0.0316 µM
viability, T/C [7]: 115%
viability, T/C [8]: 104%
viability, T/C [9]: 116%
viability, T/C [10]: 110%
viability, T/C [11]: 126%
viability, T/C [12]: 21.8%
viability, T/C [13]: 110%
viability, T/C [14]: 118%
viability, T/C [15]: 105%
viability, T/C [16]: 98.7%
viability, T/C [17]: 104%
viability, T/C [18]: 28.9%
viability, T/C [19]: 37.6%
viability, T/C [20]: 57.9%
viability, T/C [21]: 55.4%
viability, T/C [22]: 46.8%
viability, T/C [23]: 44.1%
viability, T/C [24]: 7.7%
viability, T/C [25]: 0.47%
viability, T/C [26]: 0.46%
viability, T/C [27]: 0.3%
viability, T/C [28]: 0.39%
viability, T/C [29]: 0.22%
viability, T/C [30]: 0.86%
viability, T/C [31]: 0.11%
viability, T/C [32]: 0.67%
viability, T/C [33]: 0.13%
viability, T/C [34]: 0.13%
viability, T/C [35]: 0.14%
viability, T/C [36]: 0.52%
viability, T/C [37]: 0.11%
viability, T/C [38]: 0.13%
viability, T/C [39]: 0.14%
viability, T/C [40]: 0.16%
viability, T/C [41]: 0.15%
viability, T/C [42]: 0.25%

IC50 [1]: 5.95 µM
IC50 [2]: 3.81 µM
IC50 [3]: < 0.0316 µM
IC50 [4]: < 0.0316 µM
IC50 [5]: < 0.0316 µM
IC50 [6]: < 0.0316 µM
Compound: C=C(F)C(=O)N1CCN(c2nc(OCC3CCCN3C)nc3c2CCN(c2cccc4cccc(Cl)c24)C3)CC1CC#N (stereo unspecified) + CNC(=O)c1ccc(Nc2nc(OC3CCCC3)c3c(-c4ccc5nc(C)oc5c4)c[nH]c3n2)c(OC)c1
viability, T/C [7]: 110%
viability, T/C [8]: 107%
viability, T/C [9]: 120%
viability, T/C [10]: 106%
viability, T/C [11]: 111%
viability, T/C [12]: 0.23%
viability, T/C [13]: 70.8%
viability, T/C [14]: 71.7%
viability, T/C [15]: 66.6%
viability, T/C [16]: 65%
viability, T/C [17]: 60.1%
viability, T/C [18]: 0.52%
viability, T/C [19]: 26%
viability, T/C [20]: 27.9%
viability, T/C [21]: 29%
viability, T/C [22]: 22.4%
viability, T/C [23]: 24.4%
viability, T/C [24]: 0.16%
viability, T/C [25]: 18.6%
viability, T/C [26]: 17.9%
viability, T/C [27]: 23%
viability, T/C [28]: 20.2%
viability, T/C [29]: 20.8%
viability, T/C [30]: 0.14%
viability, T/C [31]: 18.8%
viability, T/C [32]: 19.3%
viability, T/C [33]: 19.9%
viability, T/C [34]: 19.4%
viability, T/C [35]: 19.7%
viability, T/C [36]: 0.19%
viability, T/C [37]: 21.2%
viability, T/C [38]: 18.6%
viability, T/C [39]: 18.2%
viability, T/C [40]: 19.8%
viability, T/C [41]: 19.1%
viability, T/C [42]: 0.26%

IC50 (curve of compound): > 10 µM
Compound: O=C(c1cc(Cc2n[nH]c(=O)c3ccccc23)ccc1F)N1CCN(C(=O)C2CC2)CC1
viability, T/C (compound 0.0316 µM): 109% and 101%
viability, T/C (compound 0.1 µM): 90.8% and 97.7%
viability, T/C (compound 0.316 µM): 92% and 108%
viability, T/C (compound 1 µM): 79.5% and 103%
viability, T/C (compound 3.16 µM): 75.7% and 84.3%
viability, T/C (compound 10 µM): 57.9% and 71.5%
